# According to patent US20080014253A1, “Lipid-Based Drug Delivery Systems Containing Unnatural Phospholipase A2 Degradable Lipid Derivatives and the Therapeutic Uses Thereof” (priority 2004, published 2008):
# Target: T1, PLA2 (A. piscivorus piscivorus) (Agkistrodon piscivorus piscivorus, UniProt P51972)
# T1 sequence (P51972 1-123): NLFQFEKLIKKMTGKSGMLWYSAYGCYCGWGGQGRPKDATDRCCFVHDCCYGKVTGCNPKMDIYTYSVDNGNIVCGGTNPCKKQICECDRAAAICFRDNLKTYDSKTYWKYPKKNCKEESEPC
# Assay: PLA2 hydrolysis of unilamellar liposomes (lag time, degree of lipid hydrolysis by HPLC)
# Assay type: biochemical
# Conditions: for degree of PLA2 lipid hydrolysis: 1000 s after the unset of the burst, HPLC, broad temperature range
# Protocol: FIG. 4. Characteristic reaction time profiles at 40° C. for PLA2 hydrolysis of unilamellar. (A) 0.15 mM 1-O-DPPC′ liposomes incubated with 150 nM PLA2 (A. piscivorus piscivorus). (B) 0.15 mM 1-O-DPPG′ liposomes incubated with human secretory PLA2 from 20 μL freshly prepared human tear fluid (B). The PLA2 hydrolysis reaction is monitored by intrinsic fluorescence (solid line) from the enzyme and 90° static light scattering (dashed lines) from the lipid suspension. After adding PLA2 to the equilibrated liposome suspension a characteristic lag time, τ, follows before a sudden increase in the catalytic activity takes place (A).
# FIG. 5. PLA2 (A. piscivorus piscivorus) lag time, τ, as a function of temperature for the hydrolysis of 1-O-DPPC′ unilamellar liposomes incorporated with 0 mol % (▪), 2 mol % (▴), and 10 mol % (∘) 1-O-DPPG′ lipids, and 5 mol % (V) DSPE-PEG2000 polymer lipids. The concentration of the liposomes was 0.15 mM and the concentration of PLA2 was 150 nM.
# FIG. 6. (A) PLA2 (A. piscivorus piscivorus) hydrolysis of 1-O-DPPC′ liposomes containing 0 mol % (▪), 2 mol % (▴), and 10 mol % (∘) 1-O-DPPG′ lipids, and 5 mol % (▾) DSPE-PEG2000 polymer lipids determined by HPLC [28]. The percent lipid hydrolysis is determined 1000 s after the unset of the burst. The concentration of the liposomes was 0.15 mM and the concentration of PLA2 was 150 nM. (B) Hydrolysis of 1-O-DPPG′ unilamellar liposomes determined by HPLC [28]. The PLA2 catalyzed lipid hydrolysis is determined as a function of time after addition of 20 μL freshly prepared human tear fluid to 0.15 mM 1-O-DPPG′ liposomes.
# By replacing the ester linkage in the C-1 position with an ether bond, these unnatural phospholipids can furthermore be used as novel prodrug anticancer lipids to make liposomal microcarriers that can be degraded to active anticancer lysoetherlipids by PLA2 [27]. […] The PLA2 lag time measurements on 1-O-DPPC′ unilamellar liposomes incorporated with small amounts of 1-O-DPPG′ or DSPE-PEG2000 lipids were performed in the gel-to-fluid main phase transition range and the degree of lipid hydrolysis was analyzed using HPLC techniques.
# Typical PLA2 (A. piscivorus piscivorus) hydrolysis time course profiles obtained at 40° C. are shown in FIG. 4 for 1-O-DPPC′ and 1-O-DPPG′ unilamellar liposomes. […] The rapid increase in PLA2 activity is reflected by a sharp rise in the intrinsic PLA2 tryptophan fluorescence intensity followed by a concomitant decrease in the 90° static light scattering caused by a change in the morphology of the lipid system when a large amount of the phospholipids are converted to non-bilayer forming lysolipids and free fatty acids. […] Both the fluorescence and light scattering data clearly indicate that the unnatural phospholipids are excellent substrates for PLA2 catalyzed hydrolysis. […]
compound,measurement,setting,value
"CCCCCCCCCCCCCCCCOC[C@@H](COC(=O)CCCCCCCCCCCCCCC)OP(=O)([O-])OCC[N+](C)(C)C [1-O-DPPC′, (S)-1-O-hexadecyl-3-hexadecanoyl-glycero-2-phosphocholine]","PLA2 lag time, τ","0.15 mM unilamellar liposomes, 150 nM PLA2, 40° C.",observed
same,PLA2 lag time,1-O-DPPC′ liposomes incorporated with 5 mol % DPPE-PEG2000 lipopolymers,very short lag time
same,degree of PLA2 lipid hydrolysis,,remarkably high degree of lipid hydrolysis
(S)-1-O-hexadecyl-3-hexadecanoyl-glycero-2-phosphoglycerol [1-O-DPPG′],degree of PLA2 lipid hydrolysis,,remarkably high degree of lipid hydrolysis
